Results from ChEMBL document CHEMBL1938259, “Novel substituted pyrimidines as HCV replication (replicase) inhibitors” (Bioorg Med Chem Lett, 2012).

Columns and labels:
Canis familiaris = assay: AUC (0 to 24 hrs) in dog at 2 mg/kg, po; assay type: ADME, organism-based, Canis lupus familiaris, Plasma; set-up: time < 24 hr, dose 2 mg/kg, route oral; details: in vivo
Rattus norvegicus = assay: AUC (0 to 24 hrs) in rat at 10 mg/kg, po and 2 mg/kg, iv; assay type: ADME, organism-based, Plasma; details: in vivo

AUC (Canis familiaris) [µM·h]	AUC (Rattus norvegicus) [µM·h]	SMILES
2.2	1.6	Nc1nc(Cl)c(C#Cc2ccsc2)c(N[C@@H]2C[C@H](CO)[C@@H](O)[C@H]2O)n1
	0.6	Nc1nc(Cl)c(C#Cc2nccs2)c(N[C@@H]2C[C@H](CO)[C@@H](O)[C@H]2O)n1
